In brackets after ≈: the same amount, converted by molar mass. Read-outs that look alike come from different tables or passages of the source.
Assays:
Conditions in all cases: Neisseria gonorrhoeae
N. gonorrhoeae 197 = test: MIC/MBC against N. gonorrhoeae clinical isolate 197; format: cell-based
Procedure: (§1) Briefly, bacteria were grown overnight on chocolate agar II at 37° C in the presence of 5% CO2. Afterwards, a bacterial suspension equivalent to 1.0 McFarland standard was prepared and diluted in brucella broth supplemented with yeast extract, neopeptone, hematin, pyridoxal, and NAD. Test agents were added in the first row of the 96-well plates and serially diluted along the plates. Plates were then incubated at 37° C in the presence of 5% CO2 for 24 h. […] Plates were then incubated at 37 ° C in the presence of 5% CO2 for 24 h. The MBC was categorized as the lowest concentration that reduced bacterial growth by 99.9% [45, 46, 47].

N. gonorrhoeae 194 = test: MIC/MBC against N. gonorrhoeae clinical isolate 194; format: cell-based
Procedure: as §1

N. gonorrhoeae WHO L = test: MIC/MBC against N. gonorrhoeae WHO L reference strain; format: cell-based
Procedure: as §1

[1] = tested on: N. gonorrhoeae strain 181; test: MIC by broth microdilution against N. gonorrhoeae strain 181; format: cell-based, Neisseria gonorrhoeae
Procedure: as §1

N. gonorrhoeae 200 = test: MIC/MBC against N. gonorrhoeae clinical isolate 200; format: cell-based
Procedure: as §1

N. gonorrhoeae 166 = test: MIC/MBC against N. gonorrhoeae clinical isolate 166; format: cell-based
Procedure: as §1

N. gonorrhoeae 165 = test: MIC/MBC against N. gonorrhoeae clinical isolate 165; format: cell-based
Procedure: as §1

[2] = N. gonorrhoeae strain 181, read-out: MIC

CC[C@H]1OC(=O)[C@H](C)[C@@H](O[C@H]2C[C@@](C)(OC)[C@@H](O)[C@H](C)O2)[C@H](C)[C@@H](O[C@@H]2O[C@H](C)C[C@H](N(C)C)[C@H]2O)[C@](C)(O)C[C@@H](C)CN(C)[C@H](C)[C@@H](O)[C@]1(C)O [Azithromycin, azithromycin, reference compound] showed an MBC (N. gonorrhoeae 197) of 2 µg/mL (≈ 2.67 µM), an MIC (N. gonorrhoeae 197) of 0.5 µg/mL (≈ 0.668 µM) and an MBC (N. gonorrhoeae 194) of 0.5 µg/mL (≈ 0.668 µM). It also gave an MIC (N. gonorrhoeae 194) of 0.25 µg/mL (≈ 0.334 µM), an MBC (N. gonorrhoeae WHO L) of 1 µg/mL (≈ 1.34 µM) and an MIC (N. gonorrhoeae WHO L) of 0.5 µg/mL (≈ 0.668 µM). The MIC [1]; 181 was 256 µg/mL (≈ 342 µM), the MBC (N. gonorrhoeae 200) was 0.5 µg/mL (≈ 0.668 µM) and the MIC (N. gonorrhoeae 200) was 0.5 µg/mL (≈ 0.668 µM). It also gave an MBC (N. gonorrhoeae 166) of 1 µg/mL (≈ 1.34 µM), an MIC (N. gonorrhoeae 166) of 0.5 µg/mL (≈ 0.668 µM) and an MBC (N. gonorrhoeae 165) of 4 µg/mL (≈ 5.34 µM). The MIC (N. gonorrhoeae 165) was 1 µg/mL (≈ 1.34 µM).

O=C(Nc1nnc(-c2cccs2)o1)c1ccc(S(=O)(=O)C(F)(F)F)cc1 [Compound 6] gave an MIC [1, 2] of 0.5 µg/mL (≈ 1.24 µM).

O=C(Nc1nnc(-c2cccs2)o1)c1ccc(SC(F)(F)F)cc1 [Compound 12] showed an MIC [1, 2] of 0.06 µg/mL (≈ 0.162 µM).

With O=C(Nc1nnc(-c2cccs2)o1)c1ccc(S(F)(F)(F)(F)F)cc1 [Compound 13] the MIC [1, 2] was 0.06 µg/mL (≈ 0.151 µM).

From article PMC7957578, “N-(1,3,4-Oxadiazol-2-yl)Benzamides as Antibacterial Agents against Neisseria gonorrhoeae” (International Journal of Molecular Sciences, 2021)
